Test results: ChEMBL document CHEMBL1130880, “Synthesis and in vitro cytotoxicity of C(20)(RS)-camptothecin analogues modified at both B (or A) and E ring” (Bioorg Med Chem Lett, 1998)

Key:
Type in all cases: functional, cell-based
[1] = test system: A 172; experiment: Compound was evaluated for in vitro antiproliferative activity against A172 human CNS cancer cell line
[2] = test system: Caov-3 cell line; experiment: Compound was evaluated for in vitro antiproliferative activity against CAOV-3 human ovarian cancer cell line
[3] = test system: DLD-1; experiment: Compound was evaluated for in vitro antiproliferative activity against DLD-1 human colon cancer cell line
[4] = test system: KATO III stomach cancer cell line; experiment: Compound was evaluated for in vitro antiproliferative activity against KATO-III human gastric cancer cell line
[5] = test system: L1210; experiment: Compound was evaluated for in vitro antiproliferative activity against L1210 mouse leukemia cell line

COCOCCC1(O)C(=O)OCc2c1cc1n(c2=O)Cc2cc3ccccc3nc2-1 (configuration not stated)
IC50 [1]: 2.62 µM
IC50 [2]: 0.56 µM
IC50 [3]: 1.86 µM
IC50 [4]: 0.32 µM
IC50 [5]: 0.44 µM

CC(C)NCCc1c2c(nc3ccccc13)-c1cc3c(c(=O)n1C2)COC(=O)C3(O)CCO (configuration not stated)
IC50 [1]: 3.56 µM
IC50 [2]: 0.483 µM
IC50 [3]: 0.619 µM
IC50 [4]: 4.4 µM
IC50 [5]: 6.73 µM

COCOCCC1(O)C(=O)OCc2c1cc1n(c2=O)Cc2c-1nc1ccccc1c2CCNC(C)C (configuration not stated)
IC50 [1]: 12.2 µM
IC50 [2]: 0.091 µM
IC50 [3]: 0.549 µM
IC50 [4]: 3.27 µM

CCOCOCCC1(O)C(=O)OCc2c1cc1n(c2=O)Cc2c-1nc1cc3c(cc1c2CCl)OCCO3 (configuration not stated)
IC50 [2]: 3.76 µM
IC50 [3]: 3.88 µM
IC50 [4]: 5.92 µM

CCC1(O)C(=O)OCc2c1cc1n(c2=O)Cc2cc3ccccc3nc2-1 (configuration not stated)
IC50 [1]: 0.029 µM
IC50 [2]: 0.032 µM
IC50 [3]: 0.102 µM
IC50 [4]: 0.448 µM
IC50 [5]: 0.035 µM

CCC1(O)C(=O)OCc2c1cc1n(c2=O)Cc2c-1nc1ccccc1c2CCNC(C)C (configuration not stated)
IC50 [1]: 0.167 µM
IC50 [2]: 0.004 µM
IC50 [3]: 0.276 µM
IC50 [4]: 0.623 µM
IC50 [5]: 0.46 µM

CCOCOCCC1(O)C(=O)OCc2c1cc1n(c2=O)Cc2c-1nc1ccccc1c2CCNC(C)C (configuration not stated)
IC50 [1]: 5.46 µM
IC50 [2]: 0.024 µM
IC50 [3]: 2.1 µM
IC50 [4]: 4.21 µM
IC50 [5]: 14.1 µM

COCOCCC1(O)C(=O)OCc2c1cc1n(c2=O)Cc2c-1nc1cc3c(cc1c2CCl)OCCO3 (configuration not stated)
IC50 [1]: 0.029 µM
IC50 [2]: 0.003 µM
IC50 [3]: 0.108 µM
IC50 [4]: 1.46 µM
IC50 [5]: 0.307 µM

CCC1(O)C(=O)OCc2c1cc1n(c2=O)Cc2c-1nc1cc3c(cc1c2CCl)OCCO3 (configuration not stated)
IC50 [1]: 0.054 µM
IC50 [2]: 0.087 µM
IC50 [3]: 2.78 µM
IC50 [4]: 6.11 µM
IC50 [5]: 14 µM

O=C1OCc2c(cc3n(c2=O)Cc2c-3nc3cc4c(cc3c2CCl)OCCO4)C1(O)CCO (configuration not stated)
IC50 [1]: 0.391 µM
IC50 [2]: 0.01 µM
IC50 [3]: 0.055 µM
IC50 [4]: 0.135 µM
IC50 [5]: 0.898 µM
